Each structure is given as a SMILES string.

We go through 8 compounds from ChEMBL document CHEMBL1147830, “Isoquinoline-pyridine-based protein kinase B/Akt antagonists: SAR and in vivo antitumor activity” (Bioorg Med Chem Lett, 2006).

The target in data set [1] is RAC-beta serine/threonine-protein kinase (Homo sapiens, UniProt P31751). The experiment in a line: Inhibition of Akt2 at 5 uM ATP.
Data set [2] has as its target RAC-gamma serine/threonine-protein kinase (Homo sapiens, UniProt Q9Y243). The experiment in a line: Inhibition of Akt3 at 5 uM ATP.
In data set [3] the target is cAMP-dependent protein kinase (PKA) (Homo sapiens, UniProt P22694+P17612+P22612). The experiment in a line: Inhibition of PKA at 5 uM ATP. The data set is classed as protein assay.
The target of data set [4] is Protein kinase C gamma type (Homo sapiens, UniProt P05129). Put plainly: Inhibition of PKC gamma at 5 uM ATP.
The target of data set [5] is T1, Protein kinase C epsilon type (Homo sapiens, UniProt Q02156).
T1 sequence (Q02156 whole entry): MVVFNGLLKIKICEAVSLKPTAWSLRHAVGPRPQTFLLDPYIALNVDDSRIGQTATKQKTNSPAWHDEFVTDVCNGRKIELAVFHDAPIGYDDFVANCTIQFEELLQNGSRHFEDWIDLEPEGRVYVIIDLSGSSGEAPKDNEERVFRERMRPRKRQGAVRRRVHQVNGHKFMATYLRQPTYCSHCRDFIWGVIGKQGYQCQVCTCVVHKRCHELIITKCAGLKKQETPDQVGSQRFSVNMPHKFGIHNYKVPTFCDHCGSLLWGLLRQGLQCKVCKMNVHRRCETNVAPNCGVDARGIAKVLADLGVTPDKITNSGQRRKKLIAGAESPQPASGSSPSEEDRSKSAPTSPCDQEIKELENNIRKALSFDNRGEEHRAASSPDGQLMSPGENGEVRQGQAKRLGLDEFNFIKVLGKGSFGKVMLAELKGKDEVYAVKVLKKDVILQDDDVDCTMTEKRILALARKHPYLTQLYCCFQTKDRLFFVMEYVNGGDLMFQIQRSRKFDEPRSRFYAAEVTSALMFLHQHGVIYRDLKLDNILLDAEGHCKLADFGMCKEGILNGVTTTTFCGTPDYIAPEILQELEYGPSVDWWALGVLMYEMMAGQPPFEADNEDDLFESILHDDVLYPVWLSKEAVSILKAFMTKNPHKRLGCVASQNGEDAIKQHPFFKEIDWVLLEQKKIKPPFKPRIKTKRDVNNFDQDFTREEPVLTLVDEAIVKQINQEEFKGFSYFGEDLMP
Put plainly: Inhibition of PKC epsilon at 5 uM ATP.

Data set [6] has as its target Cyclin-dependent kinase 1 (Homo sapiens, UniProt P06493). Put plainly: Inhibition of CDK1 at 5 uM ATP.
The target in data set [7] is Mitogen-activated protein kinase 1 (Homo sapiens, UniProt P28482). Put plainly: Inhibition of ERK2 at 5 uM ATP.
The target of another data set is Casein kinase II (Homo sapiens, UniProt P19784+P67870+P68400). The experiment in a line: Inhibition of CK2 at 5 uM ATP. It counts as protein-complex assay.
The target of data set [8] is Proto-oncogene tyrosine-protein kinase Src (Homo sapiens, UniProt P12931). The experiment in a line: Inhibition of SRC at 5 uM ATP.
In data set [9] the target is RAC-alpha serine/threonine-protein kinase (Homo sapiens, UniProt P31749). Put plainly: Inhibition of GSK3 phosphorylation. The data set is classed as functional.
The subject of another data set is MIA PaCa-2. Put plainly: Antiproliferative activity against human MiaPaCa2 cells by MTT assay. The data set is classed as functional, cell-based.
The nature of data set [10]: Half life in CD1 mouse at 3 mg/kg, iv. Particulars: in vivo. The data set is classed as ADME, organism-based. Details: dose 3 mg/kg, route intravenous.
A short description of data set [11]: Volume of distribution in CD1 mouse at 3 mg/kg, iv or 10 mg/kg, po or 30 mg, sc. The data set is classed as ADME, organism-based. Particulars: in vivo, read-out: Vdss.
Data set [12] in a line: AUC in CD1 mouse at 30 mg, sc. The data set is classed as ADME, organism-based. Particulars: plasma.
The nature of data set [13]: Bioavailability in CD1 mouse at 10 mg/kg, po. To be noted: in vivo. The data set is classed as ADME, organism-based.
Data set [14] is described as follows: Antiproliferative activity against mouse FL5.12 cells overexpressing Akt1 by MTT assay.
Data set [15] can be described thus: Clearance in CD1 mouse at 3 mg/kg, iv or 10 mg/kg, po or 30 mg, sc. It counts as ADME, organism-based. Details: unit not given here. Particulars: in vivo.
Data set [16] is described as follows: AUC in CD1 mouse at 10 mg/kg, po. Details: dose 10 mg/kg, route oral. The data set is classed as ADME, organism-based. To be noted: plasma.

Chain of Proto-oncogene tyrosine-protein kinase Src (P12931 2-536 limits assumed): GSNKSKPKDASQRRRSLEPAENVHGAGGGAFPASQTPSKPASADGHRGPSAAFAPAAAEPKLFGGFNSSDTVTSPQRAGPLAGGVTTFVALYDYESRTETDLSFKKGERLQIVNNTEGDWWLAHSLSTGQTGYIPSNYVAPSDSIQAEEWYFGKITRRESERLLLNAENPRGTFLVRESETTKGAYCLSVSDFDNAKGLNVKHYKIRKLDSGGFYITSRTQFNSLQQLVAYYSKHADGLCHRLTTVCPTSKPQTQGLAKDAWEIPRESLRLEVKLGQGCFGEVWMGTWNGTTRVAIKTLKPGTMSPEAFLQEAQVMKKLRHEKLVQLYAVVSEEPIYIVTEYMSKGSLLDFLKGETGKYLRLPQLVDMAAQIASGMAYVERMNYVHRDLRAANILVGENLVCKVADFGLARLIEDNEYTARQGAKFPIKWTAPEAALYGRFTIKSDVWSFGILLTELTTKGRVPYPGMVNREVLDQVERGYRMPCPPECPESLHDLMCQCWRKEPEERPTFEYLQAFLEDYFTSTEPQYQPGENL
Chain of RAC-beta serine/threonine-protein kinase (P31751 whole entry): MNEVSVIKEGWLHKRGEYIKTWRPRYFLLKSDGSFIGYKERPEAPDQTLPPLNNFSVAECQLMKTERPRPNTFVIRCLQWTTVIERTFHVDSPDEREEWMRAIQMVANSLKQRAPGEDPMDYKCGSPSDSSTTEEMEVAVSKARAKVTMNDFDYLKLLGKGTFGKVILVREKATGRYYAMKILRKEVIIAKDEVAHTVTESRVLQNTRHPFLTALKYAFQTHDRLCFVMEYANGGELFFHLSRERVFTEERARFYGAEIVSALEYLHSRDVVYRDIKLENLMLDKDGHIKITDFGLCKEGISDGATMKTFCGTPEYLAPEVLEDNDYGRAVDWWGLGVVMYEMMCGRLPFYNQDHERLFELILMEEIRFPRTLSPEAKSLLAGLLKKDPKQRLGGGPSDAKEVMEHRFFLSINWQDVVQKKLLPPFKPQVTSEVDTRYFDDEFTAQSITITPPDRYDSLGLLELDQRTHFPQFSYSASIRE
Chain of RAC-alpha serine/threonine-protein kinase (P31749 whole entry): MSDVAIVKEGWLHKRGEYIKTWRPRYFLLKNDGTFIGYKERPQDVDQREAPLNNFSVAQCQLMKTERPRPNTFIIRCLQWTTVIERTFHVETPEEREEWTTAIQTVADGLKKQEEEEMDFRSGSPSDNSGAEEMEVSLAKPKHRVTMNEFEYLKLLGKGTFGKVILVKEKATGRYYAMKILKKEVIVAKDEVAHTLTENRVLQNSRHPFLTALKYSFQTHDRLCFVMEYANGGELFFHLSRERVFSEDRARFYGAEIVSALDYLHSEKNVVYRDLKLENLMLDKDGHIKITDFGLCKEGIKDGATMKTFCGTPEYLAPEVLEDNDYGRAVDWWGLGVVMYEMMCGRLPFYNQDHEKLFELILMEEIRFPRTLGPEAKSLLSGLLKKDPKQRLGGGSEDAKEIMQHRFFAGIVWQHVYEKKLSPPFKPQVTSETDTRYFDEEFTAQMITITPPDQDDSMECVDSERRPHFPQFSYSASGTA
Chain of Mitogen-activated protein kinase 1 (P28482 whole entry): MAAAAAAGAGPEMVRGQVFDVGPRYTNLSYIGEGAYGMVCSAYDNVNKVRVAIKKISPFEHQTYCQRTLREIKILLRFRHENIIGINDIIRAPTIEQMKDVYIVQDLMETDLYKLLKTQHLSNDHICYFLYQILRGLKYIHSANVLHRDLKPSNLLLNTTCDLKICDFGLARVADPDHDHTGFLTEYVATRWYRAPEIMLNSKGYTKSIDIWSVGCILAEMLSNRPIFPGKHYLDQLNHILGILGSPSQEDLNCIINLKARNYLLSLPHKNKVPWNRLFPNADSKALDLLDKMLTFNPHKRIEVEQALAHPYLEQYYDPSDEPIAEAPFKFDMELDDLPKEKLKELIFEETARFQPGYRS
Chain of Casein kinase II (P67870 whole entry): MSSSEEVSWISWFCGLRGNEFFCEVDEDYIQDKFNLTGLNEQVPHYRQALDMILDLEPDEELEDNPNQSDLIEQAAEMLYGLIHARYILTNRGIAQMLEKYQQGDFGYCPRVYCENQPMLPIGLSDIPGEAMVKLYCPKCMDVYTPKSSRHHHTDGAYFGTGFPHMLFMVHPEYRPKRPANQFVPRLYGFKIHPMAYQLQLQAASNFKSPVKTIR
Chain of Casein kinase II (P68400 whole entry): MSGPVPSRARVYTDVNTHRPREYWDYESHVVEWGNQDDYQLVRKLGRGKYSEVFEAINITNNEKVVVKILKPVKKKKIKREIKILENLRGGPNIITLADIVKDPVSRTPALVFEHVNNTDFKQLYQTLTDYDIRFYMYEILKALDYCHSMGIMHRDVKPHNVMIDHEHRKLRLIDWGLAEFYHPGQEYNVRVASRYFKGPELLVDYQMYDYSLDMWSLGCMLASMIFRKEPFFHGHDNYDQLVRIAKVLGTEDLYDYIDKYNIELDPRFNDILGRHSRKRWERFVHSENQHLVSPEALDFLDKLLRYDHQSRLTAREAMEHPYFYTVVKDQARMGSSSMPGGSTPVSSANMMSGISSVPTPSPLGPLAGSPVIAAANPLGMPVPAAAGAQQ
Chain of Casein kinase II (P19784 whole entry): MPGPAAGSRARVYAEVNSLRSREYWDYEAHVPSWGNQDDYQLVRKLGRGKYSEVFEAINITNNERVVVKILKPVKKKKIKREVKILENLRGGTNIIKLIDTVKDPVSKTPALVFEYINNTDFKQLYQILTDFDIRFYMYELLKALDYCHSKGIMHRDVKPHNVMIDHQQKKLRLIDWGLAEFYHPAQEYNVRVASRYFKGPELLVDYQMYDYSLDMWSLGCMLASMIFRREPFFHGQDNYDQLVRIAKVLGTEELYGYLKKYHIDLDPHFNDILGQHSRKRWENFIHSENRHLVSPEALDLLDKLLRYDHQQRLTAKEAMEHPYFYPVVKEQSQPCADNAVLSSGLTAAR
Chain of Cyclin-dependent kinase 1 (P06493 whole entry): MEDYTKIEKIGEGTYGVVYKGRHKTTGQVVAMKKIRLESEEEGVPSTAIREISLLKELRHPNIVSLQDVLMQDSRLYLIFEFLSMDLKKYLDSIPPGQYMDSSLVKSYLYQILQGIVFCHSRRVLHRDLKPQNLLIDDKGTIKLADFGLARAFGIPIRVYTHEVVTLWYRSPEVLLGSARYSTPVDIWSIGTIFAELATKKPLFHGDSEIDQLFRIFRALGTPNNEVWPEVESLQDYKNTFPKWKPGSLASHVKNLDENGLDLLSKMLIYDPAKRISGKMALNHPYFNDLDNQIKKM
Chain of RAC-gamma serine/threonine-protein kinase (Q9Y243 whole entry): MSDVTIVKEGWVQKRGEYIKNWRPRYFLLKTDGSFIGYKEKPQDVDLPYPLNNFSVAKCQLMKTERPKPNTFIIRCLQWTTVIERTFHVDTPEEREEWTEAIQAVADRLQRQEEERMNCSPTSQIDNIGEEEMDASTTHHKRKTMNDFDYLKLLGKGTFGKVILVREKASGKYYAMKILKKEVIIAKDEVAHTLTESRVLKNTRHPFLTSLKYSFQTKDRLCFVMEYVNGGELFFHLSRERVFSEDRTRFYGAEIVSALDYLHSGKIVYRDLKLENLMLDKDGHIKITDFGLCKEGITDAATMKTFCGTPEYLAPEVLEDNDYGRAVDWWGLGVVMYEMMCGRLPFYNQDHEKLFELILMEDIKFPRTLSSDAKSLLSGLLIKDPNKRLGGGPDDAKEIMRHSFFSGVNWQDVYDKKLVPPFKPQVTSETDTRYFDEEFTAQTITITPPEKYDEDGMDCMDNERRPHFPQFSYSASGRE

`N[C@H](COc1cnc(Cl)c(-c2ccc3cnccc3c2)c1)Cc1c[nH]c2ccccc12`: the concentration for half-maximal inhibition (IC50) in [1] was 5 nM; in [2] it was 73 nM; in [3], 5 nM; in data set [4], 540 nM; in [5], above 5000 nM; in data set [6] it was 870 nM. For the same compound, the IC50 in data set [7] was 37000 nM; on Casein kinase II, 12700 nM; in [8] it was 12100 nM; in [9], 3000 nM; in the data set on MIA PaCa-2 it was 13300 nM.
For `N[C@H](COc1cncc(-c2ccc3cnc(F)cc3c2)c1)Cc1c[nH]c2ccccc12`, the IC50 worked out at 48 nM in [3], 3400 nM in data set [6], 18000 nM in [8] and 3180 nM with MIA PaCa-2.
In the case of `N[C@H](COc1cncc(-c2ccc3cnccc3c2)c1)Cc1c[nH]c2ccccc12`, the half-inhibitory concentration (IC50) in [5] was found to be 6100 nM; in data set [8] it was 2000 nM; in [9], 1500 nM; in [14] it was 420 nM. In addition, the half-life in data set [10] was 0.3 h. Also, the Vd in [11] came to 7 L/kg. For the same compound, the AUC in data set [12] amounted to 7600 ng·h/mL. This compound also registered a bioavailability in data set [13] of 0%.
For `N[C@H](COc1cncc(-c2ccc3cnc(Cl)cc3c2)c1)Cc1c[nH]c2ccccc12`, the half-life in [10] is 2 h. The Vd in [11] was 15.5 L/kg. In [15], this compound showed a clearance of 90. Further, in [16], the AUC is 910 ng·h/mL. For the same compound, the bioavailability in [13] was found to be 27%.
`N[C@H](COc1cncc(-c2ccc3c(Cl)nccc3c2)c1)Cc1c[nH]c2ccccc12` showed a half-life in [10] of 5 h. In addition, in data set [11], the Vd was 9.5 L/kg. This compound also gave a clearance in data set [15] of 21.7. In data set [16], this compound returned an AUC of 3900 ng·h/mL. The compound also yielded a bioavailability in data set [13] of 51%.
As for `Nc1cc2cc(-c3cncc(OC[C@@H](N)Cc4c[nH]c5ccccc45)c3)ccc2cn1`, the IC50 in data set [1] worked out at 21 nM; in data set [2] it was 76 nM; in data set [3], 8 nM; in data set [4] it was 31 nM; in [5], 8300 nM; in data set [6], 22 nM. Besides, the half-maximal inhibitory concentration (IC50) in data set [7] is 1200 nM; against Casein kinase II, 620 nM; in [8], 480 nM; in data set [9], 930 nM; in the data set with MIA PaCa-2, 100 nM. For the same compound, in data set [10], the half-life is 0.7 h. Besides, the Vd in data set [11] was found to be 11.8 L/kg. The clearance in data set [15] is 202. Also, in data set [12], the AUC was found to be 6900 ng·h/mL. In addition, the bioavailability in data set [13] is 0%.
The compound `Cc1cc(-c2cncc(OC[C@@H](N)Cc3c[nH]c4ccccc34)c2)cc2ccncc12` showed a half-life in data set [10] of 4.5 h. The Vd in data set [11] turned out to be 16.4 L/kg. The clearance in data set [15] was 41.7. In data set [16], this compound came in with an AUC of 1500 ng·h/mL. This compound returned a bioavailability in data set [13] of 35%.
In the case of `C#Cc1ncc(OC[C@@H](N)Cc2c[nH]c3ccccc23)cc1-c1ccc2cnccc2c1`, the concentration for half-maximal inhibition (IC50) was 5 nM in data set [1]; 39 nM in data set [2]; 1 nM in data set [3]; 260 nM in data set [4]; 8900 nM in [5]; 4900 nM in data set [6]. The IC50 in data set [7] was 27200 nM; on Casein kinase II, above 50000 nM; in [8] it was above 50000 nM; with MIA PaCa-2 it was 10800 nM.
